US10442835B2, “Water-soluble rapamycin derivatives” (Zhejiang Hisun Pharmaceutical Co., Ltd., priority 2016, dated 2019)

Experiments:
[1] = Body weight of OS-RC-2 tumor nude mice
Protocol: The experiment was terminated and tumors were stripped and weighted. The tumor inhibition rate was calculated.
The body weight can indirectly reflect the toxicity of the drugs.

[2] = Drug release in serum by prodrugs; assay type: in vitro ADME, rat; conditions: 37° C.; HPLC at 10 min to 4 h
Protocol: The effects of the compounds according to the present invention as prodrugs of rapamycin can be confirmed by standard operational procedures of pharmacological experiments.
10 mL ZnCl2 solution with a concentration of 0.10 mol/L was prepared for use.
1.5 mL blood from ophthalmic artery of rats was injected into a 1.5 mL centrifuge tube and was centrifuged at 12000 rad/min for 10 min. 300 μl supernate (serum) was pipetted into a 1.5 mL centrifuge tube. 7 samples of the serum were prepared for use with the same method.
As a blank control, 100 μl water was added to centrifuge tube No. 7. Then the tubes were incubated at 37° C. in an incubator.
300 μl acetonitrile and 300 μl ZnCl2 solution of 0.1 mol/L were added to each of centrifuge tubes No. 1-6 at 10 min, 0.5 h, 1 h, 2 h, 3 h, and 4 h, respectively. The tubes were vortexed homogeneously for 5 min, so as to end the action of the enzyme in the serum on the compounds. 300 μl acetonitrile and 300 μl ZnCl2 solution of 0.1 M were added to the centrifuge tube No. 7 at 4 h, which was then vortexed homogeneously for 5 min.
Each of the centrifuge tubes No. 1-7 was centrifuged at 12000 rad/min for 15 min. The protein in the serum was removed via centrifuging.

[3] = In vivo pharmacokinetic study in rats; set-up: species or system SD rats
Protocol: To further study the in vivo pharmacokinetic characteristics of compound I-1 in rats, compound I-1 was administrated to SD rats via intravenous injection. The in vivo pharmacokinetic characteristics and bioavailability of everolimus released in rats were measured, and compared with the pharmacokinetic characteristics of everolimus via oral administration.
Then the animals were observed when blood was sampled every time until the last sample was collected.

[4] = Test for solubility in water; assay type: physicochemical; conditions: water, thermodynamic from solid
Protocol: The experiments herein can measure the dissolution profile in water of the compounds according to the present invention.
To a 25 ml volumetric flask, 25 mg everolimus was added, and diluted with acetonitrile to volume. The mixture was shaken till all the solid dissolved, obtaining 1 mg/mL everolimus solution in acetonitrile.
1 mg/mL everolimus solution in acetonitrile was added to a 10 ml volumetric flask, and was diluted with acetonitrile by 2 times, 10 times, 100 times and 1000 times, so as to obtain everolimus solutions in acetonitrile with a concentration of 0.5 mg/mL, 0.1 mg/mL, 0.01 mg/mL and 0.001 mg/mL, respectively.
Each of the three mixtures was shaken till the solid in the volumetric flask stopped to dissolve. Before analyzed by HPLC, 1 mL of each solution was filtrated via a 0.22 μm filter. The solubility of the compounds was calculated from the standard curve using the peak area of the main peak obtained.
Based on the same study method, comparisons of the solubility between sirolimus/temsirolimus and the compounds modified by glutathione are carried out, respectively.

[5] = Day 5, G4 compound I-1 8.12 mg/kg ig 3×/qw
[6] = Day 5, G5 compound I-1 2.0 mg/kg iv 3×/qw
[7] = Day 5, G6 compound I-1 8.12 mg/kg iv 3×/qw
[8] = Day 5, G7 compound I-1 32.7 mg/kg iv 1×/qw
[9] = Day 8, G4 compound I-1 8.12 mg/kg ig 3×/qw
[10] = Day 8, G5 compound I-1 2.0 mg/kg iv 3×/qw
[11] = Day 8, G6 compound I-1 8.12 mg/kg iv 3×/qw
[12] = Day 8, G7 compound I-1 32.7 mg/kg iv 1×/qw
[13] = Day 12, G4 compound I-1 8.12 mg/kg ig 3×/qw
[14] = Day 12, G5 compound I-1 2.0 mg/kg iv 3×/qw
[15] = Day 12, G6 compound I-1 8.12 mg/kg iv 3×/qw
[16] = Day 12, G7 compound I-1 32.7 mg/kg iv 1×/qw
[17] = Day 15, G4 compound I-1 8.12 mg/kg ig 3×/qw
[18] = Day 15, G5 compound I-1 2.0 mg/kg iv 3×/qw
[19] = Day 15, G6 compound I-1 8.12 mg/kg iv 3×/qw
[20] = Day 15, G7 compound I-1 32.7 mg/kg iv 1×/qw
[21] = Day 19, G4 compound I-1 8.12 mg/kg ig 3×/qw
[22] = Day 19, G5 compound I-1 2.0 mg/kg iv 3×/qw
[23] = Day 19, G6 compound I-1 8.12 mg/kg iv 3×/qw
[24] = Day 19, G7 compound I-1 32.7 mg/kg iv 1×/qw
[25] = Day 22, G4 compound I-1 8.12 mg/kg ig 3×/qw
[26] = Day 22, G5 compound I-1 2.0 mg/kg iv 3×/qw
[27] = Day 22, G6 compound I-1 8.12 mg/kg iv 3×/qw
[28] = Day 22, G7 compound I-1 32.7 mg/kg iv 1×/qw
[29] = Day 26, G4 compound I-1 8.12 mg/kg ig 3×/qw
[30] = Day 26, G5 compound I-1 2.0 mg/kg iv 3×/qw
[31] = Day 26, G6 compound I-1 8.12 mg/kg iv 3×/qw
[32] = Day 26, G7 compound I-1 32.7 mg/kg iv 1×/qw
[33] = Day 29, G4 compound I-1 8.12 mg/kg ig 3×/qw
[34] = Day 29, G5 compound I-1 2.0 mg/kg iv 3×/qw
[35] = Day 29, G6 compound I-1 8.12 mg/kg iv 3×/qw
[36] = Day 29, G7 compound I-1 32.7 mg/kg iv 1×/qw
[37] = Day 32, G4 compound I-1 8.12 mg/kg ig 3×/qw
[38] = Day 32, G5 compound I-1 2.0 mg/kg iv 3×/qw
[39] = Day 32, G6 compound I-1 8.12 mg/kg iv 3×/qw
[40] = Day 32, G7 compound I-1 32.7 mg/kg iv 1×/qw
[41] = Sprague-Dawley (SD), rat, everolimus in plasma, everolimus PO 10 mg/kg, male SD rats

## CO[C@H]1C[C@@H]2CC[C@@H](C)[C@@](O)(O2)C(=O)C(=O)N2CCCC[C@H]2C(=O)OC([C@H](C)C[C@@H]2CC[C@@H](OCCOC(=O)CSC[C@H](NC(=O)CC[C@H](N)C(=O)O)C(=O)NCC(=O)O)[C@H](OC)C2)CC(=O)[C@H](C)/C=C(\C)[C@@H](O)[C@@H](OC)C(=O)[C@H](C)C[C@@H](C)\C=C/C=C/C=C/1C (some centres unmarked) [Compound I-1]
[1]; Day 1, G4 compound I-1 8.12 mg/kg ig 3×/qw
  Body Weight, mean value: 21.04 g
[1]; Day 1, G5 compound I-1 2.0 mg/kg iv 3×/qw
  Body Weight, mean value: 20.67 g
[1]; Day 1, G6 compound I-1 8.12 mg/kg iv 3×/qw
  Body Weight, mean value: 21.39 g
[1]; Day 1, G7 compound I-1 32.7 mg/kg iv 1×/qw
  Body Weight, mean value: 21.28 g
[1]; [5]
  Body Weight, mean value: 20.27 g
  Decrease rate of body weight: 3.7%
[1]; [6]
  Body Weight, mean value: 19.27 g
  Decrease rate of body weight: 6.8%
[1]; [7]
  Body Weight, mean value: 20.46 g
  Decrease rate of body weight: 4.4%
[1]; [8]
  Body Weight, mean value: 19.97 g
  Decrease rate of body weight: 6.2%
[1]; [9]
  Body Weight, mean value: 20.04 g
  Decrease rate of body weight: 4.8%
[1]; [10]
  Body Weight, mean value: 18.76 g
  Decrease rate of body weight: 9.2%
[1]; [11]
  Body Weight, mean value: 21.16 g
  Decrease rate of body weight: 1.1%
[1]; [12]
  Body Weight, mean value: 20.14 g
  Decrease rate of body weight: 5.3%
[1]; [13]
  Body Weight, mean value: 19.62 g
  Decrease rate of body weight: 6.7%
[1]; [14]
  Body Weight, mean value: 18.71 g
  Decrease rate of body weight: 9.5%
[1]; [15]
  Body Weight, mean value: 21.25 g
  Decrease rate of body weight: 0.7%
[1]; [16]
  Body Weight, mean value: 19.93 g
  Decrease rate of body weight: 6.3%
[1]; [17]
  Body Weight, mean value: 19.29 g
  Decrease rate of body weight: 8.3%
[1]; [18]
  Body Weight, mean value: 18.18 g
  Decrease rate of body weight: 12.0%
[1]; [19]
  Body Weight, mean value: 20.71 g
  Decrease rate of body weight: 3.2%
[1]; [20]
  Body Weight, mean value: 19.38 g
  Decrease rate of body weight: 8.9%
[1]; [21]
  Body Weight, mean value: 19.19 g
  Decrease rate of body weight: 8.8%
[1]; [22]
  Body Weight, mean value: 18.30 g
  Decrease rate of body weight: 11.5%
[1]; [23]
  Body Weight, mean value: 19.67 g
  Decrease rate of body weight: 8.0%
[1]; [24]
  Body Weight, mean value: 19.12 g
  Decrease rate of body weight: 10.2%
[1]; [25]
  Body Weight, mean value: 19.19 g
  Decrease rate of body weight: 8.8%
[1]; [26]
  Body Weight, mean value: 18.30 g
  Decrease rate of body weight: 11.5%
[1]; [27]
  Body Weight, mean value: 19.67 g
  Decrease rate of body weight: 8.0%
[1]; [28]
  Body Weight, mean value: 19.12 g
  Decrease rate of body weight: 10.2%
[1]; [29]
  Body Weight, mean value: 19.65 g
  Decrease rate of body weight: 6.6%
[1]; [30]
  Body Weight, mean value: 17.95 g
  Decrease rate of body weight: 13.1%
[1]; [31]
  Body Weight, mean value: 19.31 g
  Decrease rate of body weight: 9.7%
[1]; [32]
  Body Weight, mean value: 19.12 g
  Decrease rate of body weight: 10.2%
[1]; [33]
  Body Weight, mean value: 20.02 g
  Decrease rate of body weight: 4.8%
[1]; [34]
  Body Weight, mean value: 18.29 g
  Decrease rate of body weight: 11.5%
[1]; [35]
  Body Weight, mean value: 19.04 g
  Decrease rate of body weight: 10.5%
[1]; [36]
  Body Weight, mean value: 19.04 g
  Decrease rate of body weight: 10.5%
[1]; [37]
  Body Weight, mean value: 19.87 g
  Decrease rate of body weight: 5.6%
[1]; [38]
  Body Weight, mean value: 18.12 g
  Decrease rate of body weight: 12.3%
[1]; [39]
  Body Weight, mean value: 18.80 g
  Decrease rate of body weight: 11.7%
[1]; [40]
  Body Weight, mean value: 18.94 g
  Decrease rate of body weight: 10.7%
[2]
  release of everolimus in rat's serum: slowly release everolimus
other
  stability after dissolving in normal saline: the resulted solution is stable

## CO[C@H]1C[C@@H]2CC[C@@H](C)[C@@](O)(O2)C(=O)C(=O)N2CCCC[C@H]2C(=O)O[C@H]([C@H](C)C[C@@H]2CC[C@@H](OCCO)[C@H](OC)C2)CC(=O)[C@H](C)/C=C(\C)[C@@H](O)[C@@H](OC)C(=O)[C@H](C)C[C@H](C)/C=C/C=C/C=C/1C [Everolimus, reference compound]
[3]; Sprague-Dawley (SD), rat, plasma, 3 h, oral administration of everolimus 10.000 mg/kg, male SD rats
  concentration at 3 h: 64.3 ng/mL
[3]; Sprague-Dawley (SD), rat, plasma, 4 h, oral administration of everolimus 10.000 mg/kg, male SD rats
  concentration at 4 h: 61.4 ng/mL
[3]; Sprague-Dawley (SD), rat, plasma, 6 h, oral administration of everolimus 10.000 mg/kg, male SD rats
  concentration at 6 h: 32.3 ng/mL
[3]; [41]
  AUC(0-inf): 454 ng·h/mL
  AUC(0-t): 454 ng·h/mL
  Cmax: 126 ng/mL
  Tmax: 1.91 h
  half-life: 2.2 h
[3]; Sprague-Dawley (SD), rat, everolimus in plasma, everolimus PO 10 mg/kg, male SD rats, read-out: MRT (mean residence time)
  MRT: 3.17 h
[3]; everolimus in plasma, everolimus PO 10 mg/kg, male SD rats
  AUC Extr: 6.90%
[3]; rat, plasma, 0 h, oral administration of everolimus 10.000 mg/kg, male SD rats
  concentration at 0 h: 0 ng/mL
[3]; rat, plasma, 0.25 h, oral administration of everolimus 10.000 mg/kg, male SD rats
  concentration at 0.25 h: 17.3 ng/mL
[3]; rat, plasma, 0.5 h, oral administration of everolimus 10.000 mg/kg, male SD rats
  concentration at 0.5 h: 99.9 ng/mL
[3]; rat, plasma, 1 h, oral administration of everolimus 10.000 mg/kg, male SD rats
  concentration at 1 h: 99.1 ng/mL
[3]; rat, plasma, 1.5 h, oral administration of everolimus 10.000 mg/kg, male SD rats
  concentration at 1.5 h: 90.4 ng/mL
[3]; rat, plasma, 2 h, oral administration of everolimus 10.000 mg/kg, male SD rats
  concentration at 2 h: 69.7 ng/mL
[3]; rat, plasma, 8 h, oral administration of everolimus 10.000 mg/kg, male SD rats
  concentration at 8 h: 16.3 ng/mL
[3]; rat, plasma, 24 h, oral administration of everolimus 10.000 mg/kg, male SD rats
  concentration at 24 h: 2.2 ng/mL
[3]; rats orally administrated with everolimus 10 mg/Kg
  area under the curve (AUC) of plasma concentration of everolimus vs. time: about 450
[4]
  solubility: < 1 µg/mL
